The nature of data set [1]: Saline solubility at 1.00 mg/mL and 0.50 mg/mL (with pH by indicator paper). To be noted: for pH at 1.00 mg/mL of MGCD290 in saline: final concentration of hydroxamate 1 1.00 mg/mL, pH indicator paper; for solubility at 1 h: saline or isotonic, thermodynamic from solid, centrifuged, soluble = no precipitate formed. The class given is physicochemical. A digest of the protocol: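 Prodrug was weighed to give 1.00 mg/mL hydroxamate equivalent in saline, vortexed 1 h and centrifuged, and diluted to 0.50 mg/mL if it precipitated. pH was checked by indicator paper. Stability in solution diluted 1:1 with saline was followed by HPLC-UV at 0, 6 and 24 h.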

Data set [2] is described as follows: Saline solubility at 10.00 mg/mL, 5.00 mg/mL and 2.50 mg/mL (with pH by pH meter). To be noted: saline or isotonic, thermodynamic from solid, concentration expressed as equivalent of Cpd 1, highest tested concentration soluble, read-out: Highest prodrug solubility in saline (equivalent of Cpd 1). The class given is physicochemical. The method, then:
The following procedures were used
Step 1. Sample preparation. An amount of the compound sample was precisely weighed to correspond to around 10 mg of the hydroxamate of compound 1, taking into account the mass of the leaving group and the salt factor if applicable. The sample was placed in a 16×125 mm glass screw cap tube. Saline was added so that the final concentration of hydroxamate 1 was 10.00 mg/mL. The tube was shaken for 1 hour on a Vortex apparatus then centrifuged at 3000 rpm (1800 rcf) for 5 minutes. If the compound example was soluble (no precipitate formed) then the pH was measured with a pH meter, and the procedure continued to step 2. If a precipitate formed then the sample was diluted with saline so that the final concentration of the hydroxamate of compound 1 became 5.00 mg/mL, and the shaking and centrifuging steps were repeated. If the compound example was soluble (no precipitate formed) then the pH was measured with a pH meter, and the procedure continued to step 2. If a precipitate formed then the sample was diluted with saline so that the final concentration of the hydroxamate of compound 1 became 2.50 mg/mL, and the shaking and centrifuging steps were repeated. If the compound example was soluble (no precipitate formed) then the pH was measured with a pH meter, and the procedure continued to step 2

The nature of data set [3]: Conversion of prodrugs to compound 1 in human plasma. The class given is in vitro ADME. To be noted: human plasma (Na-Heparin treated), 37° C. The method, then:
(§1) Step 1. Sample preparation. A quantity of blank human plasma (Na-Heparin treated) was incubated at 37° C. for 30 minutes. An amount of the compound sample was precisely weighed to correspond to around 5.00 mg of the hydroxamate of compound 1, taking into account the mass of the leaving group and the salt factor if applicable. The sample was placed in a 16×125 mm glass screw cap tube. The incubated blank human plasma was added so that the final concentration of hydroxamate 1 was 1.00 mg/mL. The sample was sonicated for 30 seconds, shaken for 30 seconds on a Vortex apparatus, and run through the HPLC procedure of Step 2 to get a time point zero value. The samples were stored in an incubator at 37° C., and the HPLC analysis of Step 2 was repeated in 30 minutes and 1 hour.
(§2) Step 2. Protein precipitation and HPLC analysis of plasma. A 50 μL aliquot of plasma was taken in a 1.5 mL Eppendorf vial, to which was added 200 μL of MeCN. The vial was capped and shaken on a Vortex apparatus for 30 seconds, then centrifuged at 13000 rpm (15700 rcf) for five minutes. When centrifuging was complete, 100 μL of the supernatant was placed in an injection vial containing an insert, to which was added 100 μL of 0.1% formic acid in water. The vial was capped and shaken on a Vortex apparatus for 30 seconds, and the contents were injected into the HPLC-UV instrument, and a comparison was made of the retention time, peak areas and level of degradation (if any) using the GDADI50 method.
Step 3. Reference sample preparation. An amount of the compound sample was precisely weighed to correspond to around 5.00 mg of the hydroxamate of compound 1, taking into account the mass of the leaving group and the salt factor if applicable. The sample was placed in a 16×125 mm glass screw cap tube. A quantity of MeCN/H2O 50/50 v/v was added so that the final concentration of hydroxamate 1 was 1.00 mg/mL. An injection vial was filled with 100 μL of this sample stock solution and 900 μL of a solution of 40/60 MeCN/0.1% formic acid in water. The vial was capped and the contents were injected into the HPLC-UV instrument, and a comparison was made of the retention time, peak areas and level of degradation (if any) using the GDADI50 method.

The nature of data set [4]: Conversion of prodrugs to compound 1 in mouse plasma. The class given is in vitro ADME. The note with it: mouse plasma (Na-Heparin treated); for Prodrug loss at 0.5 hr / Prodrug loss at 1 hr: 37° C.; for Prodrug solubility in plasma: equivalent to 1.00 mg/mL of compound 1, * = Plasma quickly became cloudy. The method, then:
as §1, with “blank mouse” for “blank human”, “repeated at” for “repeated in”, “1 hour” for “1 hour.”
as §2

Where [5] appears, read: 1.00 mg/mL as hydroxamate 1, shaken 1 hour, read-out: Soluble at 1.00 mg/mL of MGCD290 (Y/N).
Where [6] appears, read: 0.50 mg/mL as hydroxamate 1, shaken 1 hour, read-out: Soluble at 0.5 mg/mL of MGCD290 (Y/N).

The record followed here is patent US20150203517A1, “Prodrugs of Compounds that Enhance Antifungal Activity and Compositions of Said Prodrugs” (priority 2014, published 2015).

Molecules are shown by their SMILES. Where a name gives a salt, the structure may show the parent alone.

As to `NCCCC[C@H](N)C(=O)NCCC(=O)ONC(=O)Cc1ccc(CCCCc2ccccc2)cc1` [Compound 14, (S)-2,6-Diamino-N-(3-oxo-3-(2-(4-(4-phenylbutyl)phenyl)acetamidooxy)propyl)hexanamide di-hydrochloride], the “pH at 1.00 mg/mL of MGCD290 in saline” value in data set [1] was 4-4.5. The solubility at 1 h in data set [1] (setting [5]) is greater than 1000 µg/mL. In data set [2], the solubility at 1 h stood at 10000 µg/mL. In data set [3], the “Prodrug loss at 0.5 hr” value was 100% and the “Prodrug loss at 1 hr” value is listed as 100.0%. In data set [4], the “Prodrug loss at 0.5 hr” value stood at 100%, the “Prodrug loss at 1 hr” value was determined as 100% and the “Prodrug solubility in plasma” value is reported as “Yes*”.

On to `NCC1(C(=O)ONC(=O)Cc2ccc(CCCCc3ccccc3)cc2)CC1` [Compound 54, N-(1-(aminomethyl)cyclopropanecarbonyloxy)-2-(4-(4-phenylbutyl)phenyl)acetamide], for which, in data set [1], the “pH at 1.00 mg/mL of MGCD290 in saline” value is recorded as 4-4.5. The solubility at 1 h in data set [1] (setting [5]) was greater than 1000 µg/mL. The solubility at 1 h in data set [2] came out at 2500 µg/mL. Moreover, in data set [3], the “Prodrug loss at 0.5 hr” value turned out to be 50.9% and the “Prodrug loss at 1 hr” value is reported as 71.6%. Also, in data set [4], the “Prodrug loss at 0.5 hr” value amounted to 62.6%, the “Prodrug loss at 1 hr” value was 100% and the “Prodrug solubility in plasma” value is on record as “Yes”.

As for `COCCOCCOCC(=O)NCCCC[C@H](NC(=O)COCCOCCOC)C(=O)NCCC(=O)ONC(=O)Cc1ccc(CCCCc2ccccc2)cc1` [Compound 63, (S)—N,N′-(6-Oxo-6-(3-oxo-3-(2-(4-(4-phenylbutyl)phenyl)acetamidooxy)propylamino)hexane-1,5-diyl)bis(2-(2-(2-methoxyethoxyl)ethoxy)acetamide)], the solubility at 1 h in data set [1] (setting [5]) is greater than 1000 µg/mL. Besides, the solubility at 1 h in data set [2] is 1000 µg/mL. In addition, in data set [3], the “Prodrug loss at 0.5 hr” value stood at 99.3% and the “Prodrug loss at 1 hr” value stood at 100.0%. In data set [4], the “Prodrug loss at 0.5 hr” value is on record as 100%, the “Prodrug loss at 1 hr” value worked out at 100% and the “Prodrug solubility in plasma” value is listed as “Yes*”.

In the case of `COCCOCCOCC(=O)NCCCC[C@H](NC(=O)COCCOCCOC)C(=O)N(C)CCCC(=O)ONC(=O)Cc1ccc(CCCCc2ccccc2)cc1` [Compound 64, (S)—N,N′-(6-(Methyl(4-oxo-4-(2-(4-(4-phenylbutyl)phenyl)acetamidooxy)butyl)amino)-6-oxohexane-1,5-diyl)bis(2-(2-(2-methoxyethoxyl)ethoxy)acetamide)], the “pH at 1.00 mg/mL of MGCD290 in saline” value in data set [1] was 4.5-5. Also, the solubility at 1 h in data set [1] (setting [5]) is greater than 1000 µg/mL; in data set [2] it was 10000 µg/mL. For the same compound, the “Prodrug loss at 0.5 hr” value came to 78.7% in data set [3] and 100% in data set [4]. Also, the “Prodrug loss at 1 hr” value in data set [3] was determined as 100.0%; in data set [4], 100%. In data set [4], the “Prodrug solubility in plasma” value is “Yes”.

Consider `COCCOCC(=O)NCCCC[C@H](NC(=O)COCCOC)C(=O)NCCC(=O)ONC(=O)Cc1ccc(CCCCc2ccccc2)cc1` [Compound 68], for which the “pH at 1.00 mg/mL of MGCD290 in saline” value in data set [1] is recorded as 4.5-5. The results for the solubility at 1 h in data set [1] (setting [5]) and in data set [2] were greater than 1000 µg/mL and 10000 µg/mL, respectively. For the same compound, the “Prodrug loss at 0.5 hr” value in data set [3] worked out at 98.6%; in data set [4], 100%. Further, the “Prodrug loss at 1 hr” value came out at 99.4% in data set [3] and 100% in data set [4]. Moreover, the “Prodrug solubility in plasma” value in data set [4] is on record as “Yes*”.

As to `COCCOCCOCCOCCOCCOCC(=O)N1CCC(C(=O)ONC(=O)Cc2ccc(CCCCc3ccccc3)cc2)CC1` [Compound 120], in data set [1], the “pH at 1.00 mg/mL of MGCD290 in saline” value was 4.5-5. For the same compound, in data set [1] (setting [5]), the solubility at 1 h was greater than 1000 µg/mL. Also, in data set [4], the “Prodrug loss at 0.5 hr” value came out at 100%, the “Prodrug loss at 1 hr” value worked out at 100% and the “Prodrug solubility in plasma” value is listed as “Yes”.

As for `CC(=O)OCC(=O)NCCCC[C@H](NC(=O)COC(C)=O)C(=O)NCCC(=O)ONC(=O)Cc1ccc(CCCCc2ccccc2)cc1` [Compound 154], the “pH at 1.00 mg/mL of MGCD290 in saline” value in data set [1] is 4.5-5. In addition, the solubility at 1 h in data set [1] (setting [6]) is less than 500 µg/mL; in data set [1] (setting [5]), less than 1000 µg/mL.

With `COC(=O)NCCCC[C@H](NC(=O)OC)C(=O)NCCC(=O)ONC(=O)Cc1ccc(CCCCc2ccccc2)cc1` [Compound 155], in data set [1], the “pH at 1.00 mg/mL of MGCD290 in saline” value is given as 4.5-5. For the same compound, the values for the solubility at 1 h in data set [1] (setting [6]) and in data set [1] (setting [5]) were less than 500 µg/mL and less than 1000 µg/mL, respectively.

Regarding `COCCC(=O)NCCC[C@H](NC(=O)CCOC)C(=O)NCCC(=O)ONC(=O)Cc1ccc(CCCCc2ccccc2)cc1` [Compound 156], in data set [1], the “pH at 1.00 mg/mL of MGCD290 in saline” value is 4.5-5. Further, the solubility at 1 h in data set [1] (setting [6]) was less than 500 µg/mL; in data set [1] (setting [5]), less than 1000 µg/mL.

With `CC(=O)OCC(=O)NCCC[C@H](NC(=O)COC(C)=O)C(=O)NCCC(=O)ONC(=O)Cc1ccc(CCCCc2ccccc2)cc1` [Compound 157], the “pH at 1.00 mg/mL of MGCD290 in saline” value in data set [1] is 4.5-5. The solubility at 1 h is less than 500 µg/mL in data set [1] (setting [6]) and less than 1000 µg/mL in data set [1] (setting [5]).

Take `COCCOCC(=O)NCCC[C@H](NC(=O)COCCOC)C(=O)NCCC(=O)ONC(=O)Cc1ccc(CCCCc2ccccc2)cc1` [Compound 158]: in data set [1], the “pH at 1.00 mg/mL of MGCD290 in saline” value is 4.5-5. Further, the solubility at 1 h in data set [1] (setting [6]) is less than 500 µg/mL; in data set [1] (setting [5]), less than 1000 µg/mL.

Consider `COCCOCCOCC(=O)NCCC[C@H](NC(=O)COCCOCCOC)C(=O)NCCC(=O)ONC(=O)Cc1ccc(CCCCc2ccccc2)cc1` [Compound 159], for which, in data set [1], the “pH at 1.00 mg/mL of MGCD290 in saline” value is on record as 4.5-5. The results for the solubility at 1 h in data set [1] (setting [6]) and in data set [1] (setting [5]) were less than 500 µg/mL and less than 1000 µg/mL, respectively.

Consider `COCCOCCOCCOCCOCC(=O)NCCC[C@H](NC(=O)COCCOCCOCCOCCOC)C(=O)NCCC(=O)ONC(=O)Cc1ccc(CCCCc2ccccc2)cc1` [Compound 160], for which the “pH at 1.00 mg/mL of MGCD290 in saline” value in data set [1] was 4.5-5. Also, the values for the solubility at 1 h in data set [1] (setting [6]) and in data set [1] (setting [5]) were less than 500 µg/mL and less than 1000 µg/mL, respectively.

Turning to `COCCOCC(=O)NCCCC[C@H](NC(=O)COCCOC)C(=O)NCC1(C(=O)ONC(=O)Cc2ccc(CCCCc3ccccc3)cc2)CC1` [Compound 161], the “pH at 1.00 mg/mL of MGCD290 in saline” value in data set [1] was 4.5-5. Moreover, the solubility at 1 h in data set [1] (setting [6]) is less than 500 µg/mL; in data set [1] (setting [5]), less than 1000 µg/mL.

Regarding `COCCOCCOCC(=O)NCCCC[C@H](NC(=O)COCCOCCOC)C(=O)NCC1(C(=O)ONC(=O)Cc2ccc(CCCCc3ccccc3)cc2)CC1` [Compound 162], in data set [1], the “pH at 1.00 mg/mL of MGCD290 in saline” value is on record as 4.5-5. For the same compound, in data set [1] (setting [5]), the solubility at 1 h was greater than 1000 µg/mL.

Regarding `COCCOCC(=O)NCC[C@H](NC(=O)COCCOC)C(=O)NCCC(=O)ONC(=O)Cc1ccc(CCCCc2ccccc2)cc1` [Compound 163], the “pH at 1.00 mg/mL of MGCD290 in saline” value in data set [1] was 4.5-5. The results for the solubility at 1 h in data set [1] (setting [6]) and in data set [1] (setting [5]) were less than 500 µg/mL and less than 1000 µg/mL, respectively.
